Test results taken from ChEMBL document CHEMBL1158636, “Discovery of a novel sulfonamide-pyrazolopiperidine series as potent and efficacious gamma-secretase inhibitors (Part II)” (Bioorg Med Chem Lett, 2010).

Tests used:
[1] = (§1) Oxidative metabolic stability in human liver microsomes assessed as compound remaining at 2 uM after 30 mins in presence of 1 mM UDPGA; type: ADME, Microsome; conditions: liver microsomes, read-out: Stability
Liver microsomes [2] = test: (§2) Oxidative metabolic stability in human liver microsomes assessed as compound remaining at 1 uM after 30 mins in presence of 1 mM NADPH; type: ADME, Microsome; conditions: microsomes, 0.5 h, 1 µM
[3] = Inhibition of gamma-secretase-mediated notch cleavage after 2 hrs by ELISA
[4] = Inhibition of gamma-secretase-mediated APP cleavage assessed as amyloid beta40 level after 2 hrs by ELISA
Gamma-secretase = test: Inhibition of gamma-secretase-mediated notch cleavage in human SNC cells by ELISA; type: cell-based
Liver microsomes [5] = test: as §1; type: ADME, Microsome; conditions: microsomes, 0.5 h, 2 µM
[6] = as §2; type: ADME, Microsome; conditions: liver microsomes, read-out: Stability
Mus musculus = test: Neuroprotective activity in wild type FVB mouse brain assessed as reduction of amyloid beta 40 level at 1 mg/kg, po after 3 hrs; type: functional; set-up: scale not given: the % may be the effect or the level left
[7] = molecular target: Gamma-secretase (Homo sapiens) (UniProt Q96BI3+Q9NZ42+Q8WW43+P49768+Q92542+P49810); test: Inhibition of gamma-secretase-mediated APP cleavage in human SNC cells by ELISA; type: cell-based

Row | SMILES | remaining at 0.5 h, 2 µM [1] [%] | Stability (Liver microsomes [2]) [%] | IC50 [3] [nM] | IC50 [4] [nM] | IC50 (Gamma-secretase) [nM] | Stability (Liver microsomes [5]) [%] | remaining at 0.5 h, 1 µM [6] [%] | Activity (Mus musculus) [%] | ED50 [7] [nM]
1 | O=S(=O)(c1ccc(C(F)(F)F)nc1)N1C(C2CC2)c2cn[nH]c2C(F)(F)C12CC2 (racemic) [4'-CYCLOPROPYL-7',7'-DIFLUORO-5'-(6-(TRIFLUOROMETHYL)PYRIDIN-3-YLSULFONYL)-1',4',5',7'-TETRAHYDRO SPIRO[CYCLOPROPANE-1,6'-PYRAZOLO[4,3-C]PYRIDINE] (ENANTIOMERIC MIX)] | 89 | 61 | 2 | 0.2 | 50 |  |  |  | 
2 | O=S(=O)(c1ccc(C(F)(F)F)nc1)N1C(C2CC2)c2cn[nH]c2C(F)(F)C12CC2 (stereo in doubt; 17c) [4'-CYCLOPROPYL-7',7'-DIFLUORO-5'-(6-(TRIFLUOROMETHYL)PYRIDIN-3-YLSULFONYL)-1',4',5',7'-TETRAHYDRO SPIRO[CYCLOPROPANE-1,6'-PYRAZOLO[4,3-C]PYRIDINE] (ENANTIOMERIC MIX)] |  | 72 | 221 | 56 | 9280 | 100 |  |  | 
3 | O=C1c2[nH]ncc2C(C2CC2)N(S(=O)(=O)c2ccc(C(F)(F)F)cn2)C12CC2 (stereo in doubt; 16i) [4'-CYCLOPROPYL-5'-(5-(TRIFLUORO METHYL)PYRIDIN-2-YL SULFONYL)-4',5'-DIHYDROSPIRO[CYCLOPROPANE-1,6'-PYRAZOLO[4,3-C]PYRIDIN]-7'(1'H)-ONE (ENANTIOMERIC MIX)] |  | 82 | 223 | 9.6 | 2290 | 96 |  |  | 
4 | O=S(=O)(c1ccc(C(F)(F)F)nc1)N1[C@@H](C2CC2)c2cn[nH]c2C(F)(F)[C@H]1C1CC1 (stereo in doubt) | 75 |  | 23 | 0.6 | 138 |  | 80 | 20 | 2
5 | CC(C)[C@H]1C(=O)c2[nH]ncc2[C@@H](C(C)C)N1S(=O)(=O)c1ccc(C(F)(F)F)cc1 (relative stereo) | 82 |  | 14 | 0.5 | 2300 |  | 0 |  | 33
6 | O=S(=O)(c1ccc(C(F)(F)F)nc1)N1C(C2CC2)c2cn[nH]c2C(F)(F)C12CC2 (stereo in doubt; 17b) [4'-CYCLOPROPYL-7',7'-DIFLUORO-5'-(6-(TRIFLUOROMETHYL)PYRIDIN-3-YLSULFONYL)-1',4',5',7'-TETRAHYDRO SPIRO[CYCLOPROPANE-1,6'-PYRAZOLO[4,3-C]PYRIDINE] (ENANTIOMERIC MIX)] |  | 85 | 1 |  | 25 | 85 |  |  | 
7 | O=S(=O)(c1ccc(C(F)(F)F)nc1)N1[C@@H](C2CC2)c2cn[nH]c2C(F)(F)[C@@H]1C1CC1 (stereo in doubt) | 61 |  | 3 | 0.3 | 34 |  | 53 |  | 0.5
8 | O=C1c2[nH]ncc2[C@@H](C2CC2)N(S(=O)(=O)c2ccc(C(F)(F)F)nc2)[C@H]1C1CC1 (relative stereo) | 75 |  | 10 | 0.3 | 6700 |  | 77 |  | 130
9 | CC(C)[C@@H]1c2cn[nH]c2C(=O)CN1S(=O)(=O)c1ccc(Cl)cc1 | 71 |  | 91 | 3.7 | > 40000 |  | 12 |  | 4000
10 | CC(C)C1c2cn[nH]c2C(F)(F)CN1S(=O)(=O)c1ccc(Cl)cc1 (racemic) | 42 |  | 12 | 0.7 | 574 |  | 2 |  | 11
11 | O=C1c2[nH]ncc2C(C2CC2)N(S(=O)(=O)c2ccc(C(F)(F)F)cc2)C12CC2 (racemic) | 84 |  | 69 | 1.9 | 995 |  | 85 |  | 11
12 | C[C@@H]1N(S(=O)(=O)c2ccc(C(F)(F)F)cc2)[C@H](C2CC2)c2cn[nH]c2C1(F)F (relative stereo) | 46 |  | 18 | 1 | 418 |  | 75 |  | 7
13 | O=S(=O)(c1ccc(C(F)(F)F)cc1)N1C(C2CC2)c2cn[nH]c2C(F)(F)C1C1CC1 (centres undefined) | 64 |  | 42 | 1.5 | 771 |  | 76 |  | 6
14 | C[C@@H]1N(S(=O)(=O)c2ccc(C(F)(F)F)nc2)[C@H](C2CC2)c2cn[nH]c2C1(F)F (relative stereo) | 59 |  | 20 | 1.2 | 358 |  | 79 |  | 6
15 | O=C1c2[nH]ncc2C(C2CC2)N(S(=O)(=O)c2ccc(C(F)(F)F)cc2)C1C1CC1 (racemic) | 76 |  | 21 | 0.4 | 2790 |  | 67 |  | 21
16 | O=S(=O)(c1ccc(C(F)(F)F)nc1)N1[C@H](C2CC2)c2cn[nH]c2C(F)(F)[C@H]1C1CC1 (stereo in doubt) | 41 |  | 3 | 0.1 | 13 |  | 43 |  | 0.2
17 | CC(C)(C)C1C(=O)c2[nH]ncc2C(C2CC2)N1S(=O)(=O)c1ccc(C(F)(F)F)nc1 (stereo in doubt; 3u) [6-TERT-BUTYL-4-CYCLOPROPYL-5-(6-(TRIFLUOROMETHYL)PYRIDIN-3-YLSULFONYL)-5,6-DIHYDRO-1H-PYRAZOLO[4,3-C]PYRIDIN-7(4H)-ONE (STRUCTURAL MIX)] |  | 12 | 107 | 4.8 | 1640 |  |  |  | 
18 | CC[C@@H]1c2cn[nH]c2C(=O)[C@H](CC)N1S(=O)(=O)c1ccc(Cl)cc1 (stereo in doubt) | 65 |  | 5 | 0.1 | 288 |  | 10 |  | 5
19 | CC1(C)C(=O)c2[nH]ncc2C(C2CC2)N1S(=O)(=O)c1ccc(C(F)(F)F)cc1 (racemic) | 67 |  | 268 | 7.3 | 2660 |  | 68 |  | 60
20 | C[C@H]1C(=O)c2[nH]ncc2[C@@H](C2CC2)N1S(=O)(=O)c1ccc(C(F)(F)F)nc1 (relative stereo) | 59 |  | 21 | 0.6 | > 40000 |  | 72 |  | > 10000
21 | O=C1c2[nH]ncc2C(C2CC2)N(S(=O)(=O)c2ccc(C(F)(F)F)nc2)C12CC2 (stereo in doubt; 16f) [4'-CYCLO PROPYL-5'-(6-(TRIFLUORO METHYL)PYRIDIN-3-YL SULFONYL)-4',5'-DIHYDROSPIRO[CYCLOPROPANE-1,6'-PYRAZOLO[4,3-C]PYRIDIN]-7'(1'H)-ONE (ENANTIOMERIC MIX)] |  |  | 15 | 1.4 | 250 | 94 |  | 27 | 
22 | CC1C(=O)c2[nH]ncc2C(C2CC2)N1S(=O)(=O)c1ccc(C(F)(F)F)cc1 (centres undefined) | 67 |  | 12 | 0.5 | > 40000 |  | 62 |  | 2340
23 | O=C1c2[nH]ncc2C(C2CC2)N(S(=O)(=O)c2ccc(C(F)(F)F)cn2)C12CC2 (stereo in doubt; 16h) [4'-CYCLOPROPYL-5'-(5-(TRIFLUORO METHYL)PYRIDIN-2-YL SULFONYL)-4',5'-DIHYDROSPIRO[CYCLOPROPANE-1,6'-PYRAZOLO[4,3-C]PYRIDIN]-7'(1'H)-ONE (ENANTIOMERIC MIX)] |  | 80 | 8280 | 897 | > 40000 |  |  |  | 
24 | O=S(=O)(c1ccc(C(F)(F)F)nc1)N1[C@@H](C2CC2)C(F)(F)c2[nH]ncc2[C@H]1C1CC1 (stereo in doubt) | 67 |  | 47 | 0.8 | 304 |  | 71 |  | 3
25 | O=C1c2[nH]ncc2C(C2CC2)N(S(=O)(=O)c2ccc(C(F)(F)F)nc2)C12CC2 (stereo in doubt; 16e) [4'-CYCLO PROPYL-5'-(6-(TRIFLUORO METHYL)PYRIDIN-3-YL SULFONYL)-4',5'-DIHYDROSPIRO[CYCLOPROPANE-1,6'-PYRAZOLO[4,3-C]PYRIDIN]-7'(1'H)-ONE (ENANTIOMERIC MIX)] |  | 83 |  | 1070 | > 40000 | 88 |  |  | 
